Blank lines part the entries; values can stand above or below the compound they belong to.
Tests used:
[1] = target: Serine/threonine-protein kinase B-raf (Homo sapiens) (UniProt P15056); assay: Inhibition of human BRAF at 18.6 nM by HotSpot assay relative to control
[2] = target: Cyclin-dependent kinase 5/CDK5 activator 1 (Homo sapiens) (UniProt Q00535+Q15078); assay: Inhibition of human CDK5/p25 at 18.6 nM by HotSpot assay relative to control; assay type: protein-complex assay
[3] = target: Serine/threonine-protein kinase 33 (Homo sapiens) (UniProt Q9BYT3); assay: Inhibition of human STK33 at 18.6 nM by HotSpot assay relative to control
Chain of Serine/threonine-protein kinase 33 (Homo sapiens) (Q9BYT3 whole entry, looked up): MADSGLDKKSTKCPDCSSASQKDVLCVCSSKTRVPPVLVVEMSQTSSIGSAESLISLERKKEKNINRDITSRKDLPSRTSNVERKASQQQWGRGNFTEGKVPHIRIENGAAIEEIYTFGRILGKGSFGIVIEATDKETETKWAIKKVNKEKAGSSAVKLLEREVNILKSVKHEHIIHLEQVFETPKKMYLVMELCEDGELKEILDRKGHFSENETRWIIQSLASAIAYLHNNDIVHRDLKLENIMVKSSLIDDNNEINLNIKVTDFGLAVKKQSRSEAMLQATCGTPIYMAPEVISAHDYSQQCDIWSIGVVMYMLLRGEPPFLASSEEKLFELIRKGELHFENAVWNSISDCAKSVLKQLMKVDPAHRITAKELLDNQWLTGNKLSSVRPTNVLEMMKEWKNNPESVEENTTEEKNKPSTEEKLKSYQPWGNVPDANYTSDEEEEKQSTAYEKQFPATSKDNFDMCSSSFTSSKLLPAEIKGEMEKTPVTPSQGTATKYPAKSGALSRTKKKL

[4] = target: T1, Serine/threonine-protein kinase Nek1 (Homo sapiens) (UniProt Q96PY6); assay: Inhibition of human NEK1 at 500 nM by HotSpot assay relative to control
T1 sequence (whole entry): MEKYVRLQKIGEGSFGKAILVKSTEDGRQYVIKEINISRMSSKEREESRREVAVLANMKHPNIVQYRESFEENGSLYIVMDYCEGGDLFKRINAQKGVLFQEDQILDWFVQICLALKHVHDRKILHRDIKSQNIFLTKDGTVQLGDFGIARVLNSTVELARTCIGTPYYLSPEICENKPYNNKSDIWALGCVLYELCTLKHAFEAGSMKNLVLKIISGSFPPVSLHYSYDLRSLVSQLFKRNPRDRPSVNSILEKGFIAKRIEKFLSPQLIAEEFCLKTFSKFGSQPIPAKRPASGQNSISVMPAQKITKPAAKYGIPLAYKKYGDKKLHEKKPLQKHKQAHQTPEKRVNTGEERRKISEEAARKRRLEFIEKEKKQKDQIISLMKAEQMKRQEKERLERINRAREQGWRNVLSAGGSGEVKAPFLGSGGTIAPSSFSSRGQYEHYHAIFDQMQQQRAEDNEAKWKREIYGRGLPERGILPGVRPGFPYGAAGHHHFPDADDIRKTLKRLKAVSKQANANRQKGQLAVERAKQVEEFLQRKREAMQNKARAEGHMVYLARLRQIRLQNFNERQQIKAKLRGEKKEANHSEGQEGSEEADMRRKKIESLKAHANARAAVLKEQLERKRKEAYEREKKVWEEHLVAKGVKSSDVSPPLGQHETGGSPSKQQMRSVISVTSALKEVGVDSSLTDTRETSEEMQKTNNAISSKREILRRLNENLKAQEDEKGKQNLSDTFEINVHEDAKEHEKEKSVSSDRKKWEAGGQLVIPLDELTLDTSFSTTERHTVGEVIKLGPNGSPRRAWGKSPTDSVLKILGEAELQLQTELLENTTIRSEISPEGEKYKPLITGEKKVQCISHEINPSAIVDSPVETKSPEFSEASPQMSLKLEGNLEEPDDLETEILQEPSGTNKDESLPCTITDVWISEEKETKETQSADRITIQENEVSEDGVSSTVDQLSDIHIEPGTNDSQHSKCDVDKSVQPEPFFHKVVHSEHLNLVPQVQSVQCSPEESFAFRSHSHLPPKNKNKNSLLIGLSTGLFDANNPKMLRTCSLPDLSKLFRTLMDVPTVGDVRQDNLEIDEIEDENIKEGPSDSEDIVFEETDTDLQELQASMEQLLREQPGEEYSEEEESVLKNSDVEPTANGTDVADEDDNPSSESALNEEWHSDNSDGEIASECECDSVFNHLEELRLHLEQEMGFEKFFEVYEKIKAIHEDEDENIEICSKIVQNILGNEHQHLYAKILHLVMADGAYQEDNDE

[5] = target: Cyclin-dependent kinase 7/ cyclin H (Homo sapiens) (UniProt P51946+P50613); assay: Inhibition of human CDK7/cyclin H at 1.82 nM by HotSpot assay relative to control; assay type: protein-complex assay
[6] = target: T2, Ephrin type-A receptor 8 (Homo sapiens) (UniProt P29322); assay: Inhibition of human EPHA8 at 1.82 nM by HotSpot assay relative to control
T2 sequence (whole entry): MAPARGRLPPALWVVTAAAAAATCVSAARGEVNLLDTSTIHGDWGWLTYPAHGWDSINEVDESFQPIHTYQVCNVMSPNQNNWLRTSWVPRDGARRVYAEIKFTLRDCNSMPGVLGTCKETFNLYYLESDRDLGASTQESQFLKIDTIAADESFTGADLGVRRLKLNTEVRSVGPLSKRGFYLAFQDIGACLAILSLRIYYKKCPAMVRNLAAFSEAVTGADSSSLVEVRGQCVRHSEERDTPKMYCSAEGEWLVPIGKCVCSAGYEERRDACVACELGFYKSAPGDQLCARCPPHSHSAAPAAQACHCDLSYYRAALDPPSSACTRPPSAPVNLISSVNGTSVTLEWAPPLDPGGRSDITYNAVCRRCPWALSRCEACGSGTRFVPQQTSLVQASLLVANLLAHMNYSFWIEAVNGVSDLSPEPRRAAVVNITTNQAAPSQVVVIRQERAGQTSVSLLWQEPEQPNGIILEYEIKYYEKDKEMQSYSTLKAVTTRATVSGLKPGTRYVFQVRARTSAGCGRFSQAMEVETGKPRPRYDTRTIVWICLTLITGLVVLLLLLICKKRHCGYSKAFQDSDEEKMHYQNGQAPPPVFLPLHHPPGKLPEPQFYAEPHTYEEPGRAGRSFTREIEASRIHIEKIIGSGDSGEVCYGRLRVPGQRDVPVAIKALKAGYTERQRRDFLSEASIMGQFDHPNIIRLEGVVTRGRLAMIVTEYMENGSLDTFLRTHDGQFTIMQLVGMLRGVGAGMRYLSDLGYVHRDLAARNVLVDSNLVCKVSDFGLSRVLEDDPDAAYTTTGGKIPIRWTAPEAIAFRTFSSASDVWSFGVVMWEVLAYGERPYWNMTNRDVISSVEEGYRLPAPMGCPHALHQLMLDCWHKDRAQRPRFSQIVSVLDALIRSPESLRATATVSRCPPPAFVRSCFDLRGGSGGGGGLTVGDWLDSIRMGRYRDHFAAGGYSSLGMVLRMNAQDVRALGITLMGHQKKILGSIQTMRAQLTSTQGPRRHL

Chain of Cyclin-dependent kinase 5/CDK5 activator 1 (Homo sapiens) (Q00535 whole entry): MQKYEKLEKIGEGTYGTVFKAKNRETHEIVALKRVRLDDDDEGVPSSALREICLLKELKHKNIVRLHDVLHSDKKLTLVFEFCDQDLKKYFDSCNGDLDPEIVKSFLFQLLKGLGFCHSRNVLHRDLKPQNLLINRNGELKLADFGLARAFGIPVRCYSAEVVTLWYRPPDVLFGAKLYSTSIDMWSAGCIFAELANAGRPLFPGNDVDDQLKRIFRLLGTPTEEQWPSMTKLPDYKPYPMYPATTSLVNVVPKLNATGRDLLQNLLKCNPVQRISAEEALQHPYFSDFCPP
Chain of Cyclin-dependent kinase 5/CDK5 activator 1 (Homo sapiens) (Q15078 99-307 partner limits assumed): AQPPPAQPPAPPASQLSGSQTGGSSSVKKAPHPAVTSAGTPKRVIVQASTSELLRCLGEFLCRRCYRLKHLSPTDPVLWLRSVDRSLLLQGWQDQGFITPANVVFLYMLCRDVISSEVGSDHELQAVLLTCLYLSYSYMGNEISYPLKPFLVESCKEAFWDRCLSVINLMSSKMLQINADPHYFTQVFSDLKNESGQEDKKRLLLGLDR
Chain of Serine/threonine-protein kinase B-raf (Homo sapiens) (P15056 whole entry): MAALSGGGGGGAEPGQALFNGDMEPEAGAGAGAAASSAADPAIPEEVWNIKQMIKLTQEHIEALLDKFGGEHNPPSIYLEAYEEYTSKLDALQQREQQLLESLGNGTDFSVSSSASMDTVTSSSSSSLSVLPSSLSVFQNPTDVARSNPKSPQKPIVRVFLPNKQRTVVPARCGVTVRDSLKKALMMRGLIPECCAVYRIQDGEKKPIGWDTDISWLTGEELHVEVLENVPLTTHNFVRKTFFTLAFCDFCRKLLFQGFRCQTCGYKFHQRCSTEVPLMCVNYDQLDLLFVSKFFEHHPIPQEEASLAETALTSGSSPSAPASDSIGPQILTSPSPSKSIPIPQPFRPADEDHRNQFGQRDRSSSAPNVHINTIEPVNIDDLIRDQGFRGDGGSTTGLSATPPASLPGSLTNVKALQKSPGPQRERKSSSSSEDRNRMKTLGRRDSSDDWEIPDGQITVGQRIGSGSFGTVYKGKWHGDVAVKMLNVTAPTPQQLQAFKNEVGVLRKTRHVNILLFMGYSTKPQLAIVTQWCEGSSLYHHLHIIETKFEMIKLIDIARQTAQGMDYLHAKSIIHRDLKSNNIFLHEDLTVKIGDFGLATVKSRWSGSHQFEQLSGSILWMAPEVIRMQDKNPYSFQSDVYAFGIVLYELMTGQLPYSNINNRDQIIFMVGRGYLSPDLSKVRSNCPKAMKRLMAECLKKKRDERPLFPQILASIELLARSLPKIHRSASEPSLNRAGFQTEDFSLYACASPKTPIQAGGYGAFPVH

inhibition [1]: 7.79%
inhibition [2]: 4.12%
inhibition [3]: -0.08%
Structure (SMILES): C[C@]1(O)C[C@@H](c2nc(-c3ccc4ccc(-c5ccccc5)nc4c3)c3c(N)nccn32)C1

Structure (SMILES): Nc1n[nH]c2nnc(-c3c(-c4ccccc4)nn4ccccc34)cc12
inhibition [4]: -9.24%

inhibition [5]: -3.28%
inhibition [6]: -4.62%
Structure (SMILES): C[C@@]1(C(=O)Nc2ccc(F)nc2)CCCN1c1nc(Nc2cc(C3CC3)n[nH]2)c2cccn2n1

From ChEMBL document CHEMBL5653615 (J Biol Chem, 2013)
